# According to PubChem BioAssay (NCI):
#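 96-well plates; 48 h exposure; 5 concentrations. Endpoints by linear interpolation between flanking doses. Not reached: highest tested concentration assigned. At the TGI there is no net growth.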
# Legend:
# Assay in all cases: NCI-60 cell line screen, 48 h
# SF-268 CNS = system: SF-268 CNS
# HCT-116 colon = system: HCT-116 colon
# LOX IMVI melanoma = system: LOX IMVI melanoma
# SF-539 CNS = system: SF-539 CNS
# BT-549 breast = system: BT-549 breast
# OVCAR-5 ovarian = system: OVCAR-5 ovarian
# SF-295 CNS = system: SF-295 CNS
# HOP-62 NSCLC = system: HOP-62 NSCLC
# ACHN renal = system: ACHN renal
# K-562 leukemia = system: K-562 leukemia
# NCI-H226 lung = system: NCI-H226 lung
# MCF7 breast = system: MCF7 breast
# SN12C renal = system: SN12C renal
# HCT-15 colon = system: HCT-15 colon
# HL-60(TB) leukemia = system: HL-60(TB) leukemia
# OVCAR-3 ovarian = system: OVCAR-3 ovarian
# UO-31 renal = system: UO-31 renal
# MDA-MB-435 = system: MDA-MB-435
# A498 renal = system: A498 renal
# SNB-19 CNS = system: SNB-19 CNS
# CCRF-CEM leukemia = system: CCRF-CEM leukemia
# MALME-3M melanoma = system: MALME-3M melanoma
# MDA-MB-231 breast = system: MDA-MB-231 breast
# M14 melanoma = system: M14 melanoma
# COLO 205 colon = system: COLO 205 colon
# A549 NSCLC = system: A549 NSCLC
# SNB-75 CNS = system: SNB-75 CNS
# 786-0 renal = system: 786-0 renal
# NCI/ADR-RES ovarian = system: NCI/ADR-RES ovarian
# OVCAR-4 ovarian = system: OVCAR-4 ovarian
# UACC-257 melanoma = system: UACC-257 melanoma
# IGROV1 ovarian = system: IGROV1 ovarian
# SK-MEL-2 melanoma = system: SK-MEL-2 melanoma
# KM12 colon = system: KM12 colon
# TK-10 renal = system: TK-10 renal
# MOLT-4 leukemia = system: MOLT-4 leukemia
# SW-620 colon = system: SW-620 colon
# U251 CNS = system: U251 CNS
# UACC-62 melanoma = system: UACC-62 melanoma
# OVCAR-8 ovarian = system: OVCAR-8 ovarian
# MDA-N = system: MDA-N
# DU-145 prostate = system: DU-145 prostate
# NCI-H522 lung = system: NCI-H522 lung
# PC-3 prostate = system: PC-3 prostate
# NCI-H460 lung = system: NCI-H460 lung
# SK-MEL-5 melanoma = system: SK-MEL-5 melanoma
# HOP-92 NSCLC = system: HOP-92 NSCLC
# HS 578T breast = system: HS 578T breast
# RPMI-8226 leukemia = system: RPMI-8226 leukemia
# CAKI-1 renal = system: CAKI-1 renal
# HCC-2998 colon = system: HCC-2998 colon
# NCI-H23 lung = system: NCI-H23 lung
# SK-MEL-28 melanoma = system: SK-MEL-28 melanoma
# RXF 393 renal = system: RXF 393 renal
# EKVX NSCLC = system: EKVX NSCLC
# SK-OV-3 ovarian = system: SK-OV-3 ovarian
# HT29 colon = system: HT29 colon
# SR leukemia = system: SR leukemia
smiles,measurement,setting,value
C(=Nc1ccccc1C1SCCCS1)c1ccccc1,TGI,SF-268 CNS,> 100 µM
same,TGI,HCT-116 colon,> 100 µM
same,TGI,LOX IMVI melanoma,> 100 µM
same,TGI,SF-539 CNS,> 100 µM
same,TGI,BT-549 breast,> 100 µM
same,TGI,OVCAR-5 ovarian,> 100 µM
same,TGI,SF-295 CNS,> 100 µM
same,TGI,HOP-62 NSCLC,> 100 µM
same,TGI,ACHN renal,> 100 µM
same,TGI,K-562 leukemia,> 100 µM
same,TGI,NCI-H226 lung,> 100 µM
same,TGI,MCF7 breast,> 100 µM
same,TGI,SN12C renal,> 100 µM
same,TGI,HCT-15 colon,> 100 µM
same,TGI,HL-60(TB) leukemia,> 100 µM
same,TGI,OVCAR-3 ovarian,> 100 µM
same,TGI,UO-31 renal,> 100 µM
same,TGI,MDA-MB-435,> 100 µM
same,TGI,A498 renal,> 100 µM
same,TGI,SNB-19 CNS,> 100 µM
same,TGI,CCRF-CEM leukemia,> 100 µM
same,TGI,MALME-3M melanoma,> 100 µM
same,TGI,MDA-MB-231 breast,> 100 µM
same,TGI,M14 melanoma,> 100 µM
same,TGI,COLO 205 colon,> 100 µM
same,TGI,A549 NSCLC,> 100 µM
same,TGI,SNB-75 CNS,> 100 µM
same,TGI,786-0 renal,> 100 µM
same,TGI,NCI/ADR-RES ovarian,> 100 µM
same,TGI,OVCAR-4 ovarian,> 100 µM
same,TGI,UACC-257 melanoma,> 100 µM
same,TGI,IGROV1 ovarian,> 100 µM
same,TGI,SK-MEL-2 melanoma,> 100 µM
same,TGI,KM12 colon,> 100 µM
same,TGI,TK-10 renal,> 100 µM
same,TGI,MOLT-4 leukemia,> 100 µM
same,TGI,SW-620 colon,> 100 µM
same,TGI,U251 CNS,> 100 µM
same,TGI,UACC-62 melanoma,> 100 µM
same,TGI,OVCAR-8 ovarian,> 100 µM
same,TGI,MDA-N,> 100 µM
same,TGI,DU-145 prostate,> 100 µM
same,TGI,NCI-H522 lung,> 100 µM
same,TGI,PC-3 prostate,> 100 µM
same,TGI,NCI-H460 lung,> 100 µM
same,TGI,SK-MEL-5 melanoma,> 100 µM
same,TGI,HOP-92 NSCLC,> 100 µM
same,TGI,HS 578T breast,> 100 µM
same,TGI,RPMI-8226 leukemia,> 100 µM
same,TGI,CAKI-1 renal,> 100 µM
same,TGI,HCC-2998 colon,> 100 µM
same,TGI,NCI-H23 lung,> 100 µM
same,TGI,SK-MEL-28 melanoma,> 100 µM
same,TGI,RXF 393 renal,> 100 µM
same,TGI,EKVX NSCLC,> 100 µM
same,TGI,SK-OV-3 ovarian,> 100 µM
same,TGI,HT29 colon,> 100 µM
O=c1cnnc2sc(=S)[nH]n12,TGI,SF-268 CNS,> 100 µM
same,TGI,HCT-116 colon,> 100 µM
same,TGI,SR leukemia,62.3 µM
same,TGI,LOX IMVI melanoma,13.9 µM
same,TGI,SF-539 CNS,> 100 µM
same,TGI,BT-549 breast,64.4 µM
same,TGI,OVCAR-5 ovarian,> 100 µM
same,TGI,SF-295 CNS,> 100 µM
same,TGI,HOP-62 NSCLC,9.18 µM
same,TGI,ACHN renal,> 100 µM
same,TGI,K-562 leukemia,36.8 µM
same,TGI,MCF7 breast,39.8 µM
same,TGI,HCT-15 colon,57.3 µM
same,TGI,HL-60(TB) leukemia,79.9 µM
same,TGI,OVCAR-3 ovarian,> 100 µM
same,TGI,UO-31 renal,52.1 µM
same,TGI,MDA-MB-435,> 100 µM
same,TGI,A498 renal,> 100 µM
same,TGI,SNB-19 CNS,> 100 µM
same,TGI,CCRF-CEM leukemia,12.1 µM
same,TGI,MALME-3M melanoma,> 100 µM
same,TGI,M14 melanoma,> 100 µM
same,TGI,COLO 205 colon,> 100 µM
same,TGI,A549 NSCLC,> 100 µM
same,TGI,786-0 renal,49.8 µM
same,TGI,NCI/ADR-RES ovarian,> 100 µM
same,TGI,OVCAR-4 ovarian,53.4 µM
same,TGI,UACC-257 melanoma,78.4 µM
same,TGI,IGROV1 ovarian,74 µM
same,TGI,SK-MEL-2 melanoma,> 100 µM
same,TGI,KM12 colon,> 100 µM
same,TGI,MOLT-4 leukemia,42.2 µM
same,TGI,SW-620 colon,24.9 µM
same,TGI,U251 CNS,75.3 µM
same,TGI,UACC-62 melanoma,> 100 µM
same,TGI,OVCAR-8 ovarian,34.3 µM
same,TGI,MDA-N,> 100 µM
same,TGI,DU-145 prostate,> 100 µM
same,TGI,NCI-H522 lung,27 µM
same,TGI,PC-3 prostate,> 100 µM
same,TGI,NCI-H460 lung,> 100 µM
same,TGI,SK-MEL-5 melanoma,57.9 µM
same,TGI,HS 578T breast,> 100 µM
same,TGI,RPMI-8226 leukemia,29.1 µM
same,TGI,CAKI-1 renal,68.2 µM
same,TGI,HCC-2998 colon,> 100 µM
same,TGI,SK-MEL-28 melanoma,> 100 µM
same,TGI,EKVX NSCLC,> 100 µM
same,TGI,HT29 colon,> 100 µM
